Patent publication US10322143B2, “Inhibitors of ADAMTS4 or ADAMTS5 for use in preventing or treating cardiac remodeling and chronic heart failure” (Universitetet i Oslo, priority 2013, dated 2019)

Experiments:
MT4-MMP mRNA = MT4-MMP mRNA level (qRT-PCR) in MI rats; type: in vivo, rat; conditions: PPS-treatment
Protocol: (§1) At day 0 to 3 (median 2) after surgery, infarct size was quantified by echocardiography using the Vevo2100 system (Visualsonics Inc, Canada) and magnetic resonance imaging (MRi) using a 9.4 T/210 mm/ASR horizontal bore magnet (Agilent Technologies, Inc., USA). Initially, echocardiography was performed to select moderate to large infarcts ranging approximately 40 to 50%. Thereafter, infarct sizes were exactly measured by late-enhancement gadolinium MRi analyses (Bohl S., et al. American Journal of Physiology, 2009; 296 (4): H1200-H1208) and stratified into small infarcts (stratum 1: <43%, stratum 2: 43-48%), and large infarcts (stratum 3: 48-53%, stratum 4: >53%). The rats in each MI stratum and sham group were randomized to receive intervention or control treatment. The intervention group was treated with 6 mg/kg of sodium PPS (Interfarm AS, Norway), while the control group received vehicle (0.9% NaCl), both injected subcutaneously every third day starting from post-operative day 8-10.
(§2) The mRNA levels of the ADAMTS versicanases ADAMTS1, -4, -5, -8, and -20 (Shiomi T, et al. Pathology International 2010; 60(7):477-96), versican, aggrecan, syndecan-4, tissue inhibitor metalloprotease (TIMP)-3, and membrane-type (MT)4-MMP, were quantified in rat left ventricle by qRT-PCR, as previously described in Example 1.

versican = assay: Versican DPEEAE fragments (immunoblotting) in MI rats; type: in vivo, rat; conditions: PPS-treatment
Protocol: as §1
Fractional protein lysates from myocardium of rats having undergone MI treated with PPS or vehicle were extracted as previously described in Example 1 and Didangelos et al. (Journal of Biological Chemistry 2012 Jun. 1; 287(23):19341-5). Protein concentrations were measured by western blotting as previously described in Example 1. […]

ADAMTS4 = ADAMTS4 (Rattus norvegicus (Rat), UniProt Q9ESP7); assay: ADAMTS4 protein level in myocardial protein fractions (immunoblotting), aortic banding rats; type: in vivo; conditions: AB-rats after PPS-treatment
Protocol: Three days after AB, rats were stratified by the gradient over the stenosis to ensure similar degree of cardiac stress. Two and two stratified rats were randomized to either 6 mg/kg of the sulfated polysaccharide sodium pentosan polysulfate (PPS) (Interfarm AS, Norway) or vehicle (0.9% NaCl) injected subcutaneously every third day. […] Six weeks after AB or sham operation, the rats were examined by echocardiography and postmortem analysis, performed by experienced investigators (IS, JMA) blinded to treatment group.
Proteins from rat myocardium were extracted as previously described (Didangelos et al. J Biol Chem 2012. 287(23):19341-5). […]
Protein concentrations were measured using the Micro BCA Protein Assay Kit (Pierce/Thermo Scientific, IL). […]
Membranes were blocked in 5% non-fat dry-milk (170-6404, BioRad) overnight. […] Primary antibodies used were against ADAMTS4 (PA1-1750, Thermo Pierce Scientific, IL), versican full length (sc-25831, Santa Cruz Biotechnology, CA) and versican fragments displaying the neo-epitope DPEEAE (ab19345, Abcam, Cambrigde, UK) resulting from ADAMTS cleavage by ADAMTS1/4 (Sandy J D et al. J Biol Chem 2001. 276(16):13372-8; Didangelos A et al. supra), and quantified by ImageJ.

ADAMTS5 = ADAMTS5 (Homo sapiens (Human), UniProt Q9UNA0); conditions: previous studies; cited from earlier work
ADAMTS5, sequence (Q9UNA0 262-930, species assumed): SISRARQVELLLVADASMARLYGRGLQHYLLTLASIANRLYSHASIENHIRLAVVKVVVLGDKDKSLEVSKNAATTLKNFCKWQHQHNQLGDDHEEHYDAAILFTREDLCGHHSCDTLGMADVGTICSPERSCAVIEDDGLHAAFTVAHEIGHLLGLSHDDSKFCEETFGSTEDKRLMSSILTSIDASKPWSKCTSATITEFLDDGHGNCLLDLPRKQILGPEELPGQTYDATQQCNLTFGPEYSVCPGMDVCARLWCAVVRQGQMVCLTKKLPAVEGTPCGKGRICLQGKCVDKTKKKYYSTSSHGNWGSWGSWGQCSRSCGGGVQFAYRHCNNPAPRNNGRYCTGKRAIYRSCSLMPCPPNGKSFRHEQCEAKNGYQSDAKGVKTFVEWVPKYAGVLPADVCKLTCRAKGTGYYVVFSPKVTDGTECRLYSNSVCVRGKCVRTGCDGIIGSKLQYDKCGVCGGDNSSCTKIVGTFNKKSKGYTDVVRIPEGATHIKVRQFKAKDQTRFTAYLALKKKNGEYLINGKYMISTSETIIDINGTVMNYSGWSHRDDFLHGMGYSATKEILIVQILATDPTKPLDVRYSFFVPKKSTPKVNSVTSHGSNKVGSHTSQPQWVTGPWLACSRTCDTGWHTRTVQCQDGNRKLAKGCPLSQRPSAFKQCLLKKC

TIMP-3 mRNA = TIMP-3 mRNA level (qRT-PCR) in MI rats; type: in vivo, rat; conditions: PPS-treatment
Protocol: as §1, §2

## pentosan polysulfate [PPS]
MT4-MMP mRNA
  mRNA levels of MT4-MMP: decreased
versican
  versican DPEEAE fragments: decreased
ADAMTS4
  level of ADAMTS4 in the protein fractions: not altered
ADAMTS5
  aggrecanase activity of ADAMTS5: inhibits
TIMP-3 mRNA
  TIMP-3 level: did not change
